Data reported in PMC2649998 (Journal of pharmaceutical sciences, 2009).

Key:
dogs = conditions: in dogs; cited from earlier work
[1] = system: PC-3 human prostate cells; experiment: in vitro cytotoxicity, resazurin dye, 72 h; type: cell-based; conditions: Prostate cell, read-out: PC-3 IC50
[2] = type: physicochemical
PC-3 = conditions: read-out: IC50 for PC-3; reported by the National Cancer Institute; cited from earlier work
[3] = type: physicochemical; conditions: 0.3 mM PEO-b-PDLLA, 10% w/w drug, dialysis in ddH2O, 37 °C, pH 7.4
MCF-7 = conditions: read-out: IC50 for MCF-7; reported by the National Cancer Institute; cited from earlier work
[4] = system: MCF-7 human breast cancer cells; experiment: in vitro cytotoxicity, resazurin dye, 72 h; type: cell-based; conditions: MCF7, 72 h, read-out: MCF-7 IC50
[5] = cited from earlier work

| SMILES | maximum tolerated dose (dogs) | IC50 [1] | 17-AAG : PEO-b-PDLLA ([2]; 0.3 mM PEO-b-PDLLA micelle solution) | Loading efficiency ([2]; 17-AAG loaded 1.4% divided by loading attempted 10% w/w) | increase in solubility over 17-AAG alone ([2]; in PEO-b-PDLLA (12:6 kDa) micelles versus ca. 10 μg/mL) | 17-AAG loaded ([2]; weight 17-AAG solubilized versus total weight of carrier (17-AAG and PEO-b-PDLLA), 0.3 mM PEO-b-PDLLA) | IC50 (PC-3) | release half-life [3] | IC50 (MCF-7) | IC50 [4] | aqueous solubility [5] |
| --- | --- | --- | --- | --- | --- | --- | --- | --- | --- | --- | --- |
| C=CCNC1=C2C[C@@H](C)C[C@H](OC)[C@H](O)[C@@H](C)/C=C(\C)[C@H](OC(N)=O)[C@@H](OC)/C=C\C=C(/C)C(=O)NC(=CC1=O)C2=O [17-AAG, 17-allylamino-17-demethoxygeldanamycin] | 100–200 mg/m^2/day | 74 ± 14 nM | 0.47 ± 0.068 mol:mol | 14 ± 2.0% | ca. 150 fold | 0.014 ± 0.0020 mg/mg | 50.1 nM | similar | 12.6 nM | 22 ± 14 nM | ca. 0.01 mg/mL |
| CO[C@H]1/C=C\C=C(/C)C(=O)NC2=CC(=O)C(NCCN(C)C)=C(C[C@@H](C)C[C@H](OC)[C@H](O)[C@@H](C)/C=C(\C)[C@@H]1OC(N)=O)C2=O [17-DMAG, 17-dimethylaminoethylamino-17-demethoxygeldanamycin] | 8 mg/m^2/day |  |  |  |  |  |  |  |  |  |  |
